Laboratory results reported in US10919916B2, “Boron-containing small molecules” (Bill & Melinda Gates Foundation, priority 2016, dated 2021).
Converted amounts (≈) assume the structure as drawn. Read-outs that look alike come from different tables or passages of the source.

Legend:
Type in all cases: cell-based
[1] = tested on: Streptococcus pneumoniae (ATCC 49619); test: Antibacterial MIC assay (microbroth dilution, CLSI)
How it was run: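 S. pneumoniae at 5×10^5 CFU/mL (from 0.5 McFarland saline suspension) was tested against 2-fold serial compound dilutions in cation-adjusted Mueller-Hinton broth plus 3% lysed horse blood, per CLSI M07-A10/M100-S25 microdilution guidelines.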

[2] = tested on: Staphylococcus aureus, MRSA (ATCC 33591); test: as above; conditions: read-out: MIC Staphylococcus aureus, MRSA (ATCC 33591)
How it was run: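 Compound 2-fold dilution series tested against 5×10^5 CFU/mL bacteria prepared from 0.5 McFarland saline suspensions of overnight colonies. Medium was cation-adjusted Mueller-Hinton broth, supplemented with 3% lysed horse blood for the fastidious pneumococcus. Protocol followed CLSI M07-A10 and M100-S25.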

[3] = tested on: Wolbachia pipientis in C6/36 cell line; test: Anti-Wolbachia high-content assay; conditions: read-out: EC50 Wolbachia pipientis in C6/36 cell line
Description: After 15 minutes, all media was removed from each well and fresh media (no stain) was added. Imaging of each well was accomplished using a Perkin Elmer Operetta high-content imaging system. Five fields per well were imaged using a confocal 60× objective with the Fluorescein filter (excitation filter: 460-490 nm; emission filter: 500-550 nm). Images were analyzed using the Perkin Elmer Harmony software to score each intact cell on the basis of texture complexity of the cytoplasm. Full details can be found in: […]. et al, J. Biomol.

[4] = ATCC49619, read-out: MIC Streptococcus pneumoniae (ATCC 49619)
[5] = ATCC49619, microbroth dilution, 3% lysed horse blood, 35° C. for 16-20 hours, read-out: MIC Streptococcus pneumoniae (ATCC 49619)
[6] = microbroth dilution, cation-adjusted Mueller-Hinton broth, 35° C. for 16-20 hours
[7] = C6/36 (wAlbB) cells, 7 days at 26° C., 50% reduction of Wolbachia

MIC [1, 5] [µg/mL]	MIC [2, 6] [µg/mL]	EC50 [3, 7] [nM]	SMILES	MIC [1, 4] [µg/mL]	MIC [2] [µg/mL]	EC50 ([3]; C6/36, […]) [nM]
–	–	–	C=C[C@]1(C)C[C@@H](OC(=O)COc2cc(CNC(=O)OC(C)(C)C)c3c(c2Cl)B(O)OC3)[C@]2(C)[C@H](C)CC[C@]3(CCC(=O)[C@H]32)[C@@H](C)[C@@H]1O [Compound 7, (3aR,4R,5R,7S,8S,9R,9aS,12R)-8-hydroxy-4,7,9,12-tetramethyl-3-oxo-7-vinyldecahydro-4,9a-propanocyclopenta[8]annulen-5-yl 2-((4-(((tert-butoxycarbonyl)amino)methyl)-7-chloro-1-hydroxy-1,3-dihydrobenzo[c][1,2]oxaborol-6-yl)oxy)acetate]	4 to 32 (≈ 5.93 to 47.5 µM)	0.5 to 2 (≈ 0.742 to 2.97 µM)	428
0.5 to 2	< 0.25	81	C=C[C@]1(C)C[C@@H](OC(=O)COc2cc(CN(C)C)c3c(c2)B(O)OC3)[C@]2(C)[C@H](C)CC[C@]3(CCC(=O)[C@H]32)[C@@H](C)[C@@H]1O.Cl [Compound 13, (3aR,4R,5R,7S,8S,9R,9aS,12R)-8-hydroxy-4,7,9,12-tetramethyl-3-oxo-7-vinyldecahydro-4,9a-propanocyclopenta[8]annulen-5-yl 2-((4-((dimethylamino)methyl)-1-hydroxy-1,3-dihydrobenzo[c][1,2]oxaborol-6-yl)oxy)acetate Hydrochloride]	–	–	–
< 0.25	0.5 to 2 (≈ 0.721 to 2.88 µM)	623	C=C[C@]1(C)C[C@@H](OC(=O)COc2cc3c(c(C4CCN(C(=O)OC(C)(C)C)CC4)c2)COB3O)[C@]2(C)[C@H](C)CC[C@]3(CCC(=O)[C@H]32)[C@@H](C)[C@@H]1O [Compound 17, tert-butyl 4-(1-hydroxy-6-(2-(((3aR,4R,5R,7S,8S,9R,9aS,12R)-8-hydroxy-4,7,9,12-tetramethyl-3-oxo-7-vinyldecahydro-4,9a-propanocyclopenta[8]annulen-5-yl)oxy)-2-oxoethoxy)-1,3-dihydrobenzo[c][1,2]oxaborol-4-yl)piperidine-1-carboxylate]	–	–	–
0.5 to 2 (≈ 0.86 to 3.44 µM)	0.5 to 2 (≈ 0.86 to 3.44 µM)	> 1000	C=C[C@]1(C)C[C@@H](OC(=O)COc2ccc3c(c2)B(O)OC3CNC(C)=O)[C@]2(C)[C@H](C)CC[C@]3(CCC(=O)[C@H]32)[C@@H](C)[C@@H]1O (stereo partly drawn) [Compound 22, (3aR,4R,5R,7S,8S,9R,9aS,12R)-8-hydroxy-4,7,9,12-tetramethyl-3-oxo-7-vinyldecahydro-4,9a-propanocyclopenta[8]annulen-5-yl 2-((3-(acetamidomethyl)-1-hydroxy-1,3-dihydrobenzo[c][1,2]oxaborol-6-yl)oxy)acetate]	–	–	–
0.5 to 2 (≈ 0.81 to 3.24 µM)	0.5 to 2 (≈ 0.81 to 3.24 µM)	613	C=C[C@]1(C)C[C@@H](OC(=O)COc2ccc3c(c2)B(O)OC3CNS(C)(=O)=O)[C@]2(C)[C@H](C)CC[C@]3(CCC(=O)[C@H]32)[C@@H](C)[C@@H]1O (stereo partly drawn) [Compound 23, (3aR,4R,5R,7S,8S,9R,9aS,12R)-8-hydroxy-4,7,9,12-tetramethyl-3-oxo-7-vinyldecahydro-4,9a-propanocyclopenta[8]annulen-5-yl 2-((1-hydroxy-3-(methylsulfonamidomethyl)-1,3-dihydrobenzo[c][1,2]oxaborol-6-yl)oxy)acetate]	–	–	–
0.5 to 2 (≈ 0.801 to 3.2 µM)	< 0.25	> 1000	C=C[C@]1(C)C[C@@H](OC(=O)COc2ccc3c(c2)B(O)OC3CC(=O)OC(C)(C)C)[C@]2(C)[C@H](C)CC[C@]3(CCC(=O)[C@H]32)[C@@H](C)[C@@H]1O (stereo partly drawn) [Compound 24, tert-Butyl 2-(1-hydroxy-6-(2-(((3aR,4R,5R,7S,8S,9R,9aS,12R)-8-hydroxy-4,7,9,12-tetramethyl-3-oxo-7-vinyldecahydro-4,9a-propanocyclopenta[8]annulen-5-yl)oxy)-2-oxoethoxy)-1,3-dihydrobenzo[c][1,2]oxaborol-3-yl)acetate]	–	–	–
0.5 to 2 (≈ 0.88 to 3.52 µM)	0.5 to 2 (≈ 0.88 to 3.52 µM)	> 1000	C=C[C@]1(C)C[C@@H](OC(=O)COc2ccc3c(c2)B(O)OC3CC(=O)O)[C@]2(C)[C@H](C)CC[C@]3(CCC(=O)[C@H]32)[C@@H](C)[C@@H]1O (stereo partly drawn) [Compound 25, 2-(1-hydroxy-6-(2-(((3aR,4R,5R,7S,8S,9R,9aS,12R)-8-hydroxy-4,7,9,12-tetramethyl-3-oxo-7-vinyldecahydro-4,9a-propanocyclopenta[8]annulen-5-yl)oxy)-2-oxoethoxy)-1,3-dihydrobenzo[c][1,2]oxaborol-3-yl)acetic acid]	–	–	–
0.5 to 2 (≈ 0.858 to 3.43 µM)	< 0.25	> 1000	C=C[C@]1(C)C[C@@H](OC(=O)COc2ccc3c(c2)B(O)OC3CC(=O)OC)[C@]2(C)[C@H](C)CC[C@]3(CCC(=O)[C@H]32)[C@@H](C)[C@@H]1O (stereo partly drawn) [Compound 26, (3aR,4R,5R,7S,8S,9R,9aS,12R)-8-hydroxy-4,7,9,12-tetramethyl-3-oxo-7-vinyldecahydro-4,9a-propanocyclopenta[8]annulen-5-yl 2-((1-hydroxy-3-(2-methoxy-2-oxoethyl)-1,3-dihydrobenzo[c][1,2]oxaborol-6-yl)oxy)acetate]	–	–	–
< 0.25	< 0.25	27	C=C[C@]1(C)C[C@@H](OC(=O)COc2ccc3c(c2)B(O)OC3CN(C)C)[C@]2(C)[C@H](C)CC[C@]3(CCC(=O)[C@H]32)[C@@H](C)[C@@H]1O (stereo partly drawn) [Compound 27, (3aR,4R,5R,7S,8S,9R,9aS,12R)-8-hydroxy-4,7,9,12-tetramethyl-3-oxo-7-vinyldecahydro-4,9a-propanocyclopenta[8]annulen-5-yl 2-((3-((dimethylamino)methyl)-1-hydroxy-1,3-dihydrobenzo[c][1,2]oxaborol-6-yl)oxy)acetate]	–	–	–
–	–	–	C=C[C@]1(C)C[C@@H](OC(=O)COc2ccc3c(c2Cl)B(O)OC3CNC(=O)OC(C)(C)C)[C@]2(C)[C@H](C)CC[C@]3(CCC(=O)[C@H]32)[C@@H](C)[C@@H]1O (stereo partly drawn) [Compound 30, (3aR,4R,5R,7S,8S,9R,9aS,12R)-8-hydroxy-4,7,9,12-tetramethyl-3-oxo-7-vinyldecahydro-4,9a-propanocyclopenta[8]annulen-5-yl 2-((3-(((tert-butoxycarbonyl)amino)methyl)-7-chloro-1-hydroxy-1,3-dihydrobenzo[c][1,2]oxaborol-6-yl)oxy)acetate]	4 to 32 (≈ 5.93 to 47.5 µM)	0.5 to 2 (≈ 0.742 to 2.97 µM)	> 1000
0.5 to 2 (≈ 0.95 to 3.8 µM)	< 0.25	30	C=C[C@]1(C)C[C@@H](OC(=O)COc2ccc3c(c2)B(O)OC3)[C@]2(C)[C@H](C)CC[C@]3(C[C@H](O)C(=O)[C@H]32)[C@@H](C)[C@@H]1O [Compound 35, (2S,3aR,4R,5R,7S,8S,9R,9aS,12R)-2,8-dihydroxy-4,7,9,12-tetramethyl-3-oxo-7-vinyldecahydro-4,9a-propanocyclopenta[8]annulen-5-yl 2-((1-hydroxy-1,3-dihydrobenzo[c][1,2]oxaborol-6-yl)oxy)acetate]	–	–	–

SMILES	MIC [1, 5] [µg/mL]	MIC [2, 6] [µg/mL]	EC50 [3, 7] [nM]	MIC [1, 4] [µg/mL]	MIC [2] [µg/mL]	EC50 ([3]; C6/36, […]) [nM]
C=C[C@]1(C)C[C@@H](OC(=O)COc2ccc3c(c2F)B(O)OC3CNC(=O)OC(C)(C)C)[C@]2(C)[C@H](C)CC[C@]3(CCC(=O)[C@H]32)[C@@H](C)[C@@H]1O (stereo partly drawn) [Compound 28, (3aR,4R,5R,7S,8S,9R,9aS,12R)-8-hydroxy-4,7,9,12-tetramethyl-3-oxo-7-vinyldecahydro-4,9a-propanocyclopenta[8]annulen-5-yl 2-((3-(((tert-butoxycarbonyl)amino)methyl)-7-fluoro-1-hydroxy-1,3-dihydrobenzo[c][1,2]oxaborol-6-yl)oxy)acetate]	0.5 to 2 (≈ 0.76 to 3.04 µM)	0.5 to 2 (≈ 0.76 to 3.04 µM)	> 1000	–	–	–
